Test results from patent US12233041B2, “Disulfonate stilbenes for use in the treatment of proliferative diseases” (UNIVERSITÉ DE NANTES, priority 2018, dated 2025).
Values belong to the compound of their own block, whether it stands above or below them.

Key:
[1] = test system: DU145 prostate cancer cell line; test: Cytotoxicity, MTT assay; format: cell-based; conditions: DU-145 cells, 50 μM for 3 days
Method: (§1) Prostate cancer cells DU145 (carcinoma) and fibroblast cells were cultured in […] (RPMI 1640 medium) supplemented with 10% fetal bovine serum (FBS) and 1% penicillin/streptomycin, and were grown at 37° C. with 5% CO2.
(§2) Tested molecules were dissolved and stored in DMSO at 20 mM concentration.
(§3) DU145 and fibroblast cells were seeded at 5×10^3 cells/well in 100 μl of medium in standard 96-well plates. The plates were incubated 24 h at 37° C. at an atmosphere of 5% CO2. Molecule solutions diluted in DMSO were serially diluted by RPMI 1640 medium from 60 μM to 0.02 μM and were added in 100 μl RPMI in quadruplicate.
After 72 h of incubation, 20 μL of 5 mg mL-1 MTT was added to each well according to the manufacturer's instructions. After 2 h of incubation at 37° C., the medium was removed, and 200 μl DMSO was added to each well to dissolve formazan crystals. The absorbance at 540 nm of each well was then monitored using an EnSpire multimode plate reader. Absorbance of each well was expressed as percentage of the control (wells with untreated cells), and the 50% inhibitory concentration (IC50) was determined. […] All data were expressed as the mean values±standard deviation. The IC50 values were calculated by linear regression analysis of the concentration-log response curves using the software GraphPad InStat 3.0. […]

DU-145 cell line = test: Clonogenicity test, sensitizing effect with an antineoplastic drug; format: cell-based; conditions: DU-145, cisplatin alone; read-out: IC50 (clonogenic survival, cisplatin)
Method: Clonogenicity tests are carried out against several model cell lines derived from cancer including prostate cancer (DU-145). Cells are exposed to an anti-cancer agent targeting DNA (cisplatin or camptothecin). Damaged cells are counted and seeded in the presence or in the absence of B-2 in triplicate culture plates. After about two weeks of incubation at 37° C. the number of clones formed is counted. Each cell capable of repairing its lesions will then form a clone. After counting, the percentage of survival will be calculated relative to the control condition for which it is considered that there is 100% survival.
The main interest of RAD51 protein inhibitors is the sensitization of chemo-resistant or radio-resistant cancerous cell lines. Clonogenicity evaluation was carried out on the DU-145 cell line treated with cisplatin treatment in the presence or in the absence of disulfonate stilbene B-2 (RAD51 protein inhibitor).
DU-145 cell line was treated with camptothecin in the presence or in the absence of disulfonate stilbene B-2 (RAD51 protein inhibitor) and the clonogenic cell survival was determined.

[2] = test system: RAD51 foci in DU-145 cells; test: Rad51 foci quantification by immunofluorescence; format: cell-based; conditions: DU-145, cisplatin 30 μM for 1 hour, fixed after 18 h
Method: DU-145 cells were grown on coverslips (Life Technologies) at a density of 5×10^3 cells per well in medium (RPMI) supplemented with 10% fetal bovine serum (Gibco-Invitrogen). Cells were treated with Cisplatin at 30 μM for 1 hour in presence or in absence of RAD51 inhibitor B-2 at 20 μM, and then the medium was replaced with molecule-free medium. After 18 h, cells were washed once in PBS for 5 min and fixed with ethanol absolute for 25 min.
The fixed cells were incubated for 1 h in the PBS buffer containing 1:1000 diluted anti-RAD51 antibody at room temperature. After three 5-min washes in PBS, slides were incubated with PBS solution containing the secondary antibody conjugated with AlexaFluor 555 ([…]) for 45 min in dark room. […] The images were recorded with NIS Element software (Version 3.6, Nikon, Tokyo, Japan). The quantification of RAD51 foci was processed with a program derived from Fiji-ImageJ software (NIH, Bethesda, Maryland, USA). […]
The treatment with Cisplatin alone induces a high level of RAD51 foci, whereas this level is decreased when the treatment is associated with B-2 20 μM. After the quantification of the number of RAD51 foci per cell, the number of cells containing more than 20 RAD51 foci was determined.

HsRad51 = biological target: T1, HsRad51 (Homo sapiens, UniProt Q06609); test: RAD51 oligomerization by SDS-PAGE gel after crosslink; format: biochemical; conditions: 2.5 μM HsRad51, disuccinimidyl suberate crosslink, SDS-PAGE/Western blot; FIG. 1
T1 sequence (Q06609 1-339): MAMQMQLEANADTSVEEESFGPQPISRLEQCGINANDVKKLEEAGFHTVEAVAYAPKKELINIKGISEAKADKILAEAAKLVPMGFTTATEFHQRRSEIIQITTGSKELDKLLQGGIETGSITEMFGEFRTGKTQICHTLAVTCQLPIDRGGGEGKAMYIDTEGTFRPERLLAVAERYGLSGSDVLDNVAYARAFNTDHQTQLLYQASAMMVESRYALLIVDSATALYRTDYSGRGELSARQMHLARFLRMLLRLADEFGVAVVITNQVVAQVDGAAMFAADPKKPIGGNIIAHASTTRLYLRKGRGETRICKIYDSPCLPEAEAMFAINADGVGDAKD
Method: The reaction was performed at room temperature. 2.5 μm HsRad51 was incubated with the indicated concentrations of tested compounds for 10 min in a buffer containing 20 mm sodium phosphate, 50 mm NaCl, 1 mm MgCl 2, and 1 mm ATP. The cross-linking reactions were initiated by the addition of disuccinimidyl suberate (50 μm) and allowed to proceed for 30 min. Reactions were quenched by the addition of Tris-HCl (pH 7.5, final concentration: 50 mm) followed by subsequent incubations for 15 min. The products were then separated by 12% SDS polyacrylamide gel electrophoresis and detected by Western blot with mouse monoclonal anti-Rad51 antibody (NeoMarkers) and anti-mouse Alexa-Fluor 700-conjugated secondary antibody (Molecular Probes, Eugene, OR). The cross-linked dimer was quantified by an Odyssey Infrared Imaging System scanner (Li-Cor Biosciences) (Martinez, S. F. et al., “Targeting human Rad51 by specific DNA aptamers induces inhibition of homologous recombination”, Biochimie, December 2010, Vol. 92, No. 12, pp. 1832-1838).
The SDS-PAGE electrophoresis after crosslink maintains and immobilizes the RAD51 protein complexes and thus allows visualization of the degree of oligomerization (polymer formation) of the RAD51 protein. The effect of RAD51 protein inhibitors B-1, B-2, B-3, DIDS and X-4 on this key step of RAD51 protein recombinase activity has thus been evaluated. The results are presented on FIG. 1.

Rad51 = biological target: T2, Rad51 (Homo sapiens, UniProt Q06609); test: DNA invasion by D-loop assay (strand exchange); format: biochemical; conditions: 0.5 μM Rad51, 1 μM 100-ssDNA, 37° C.; read-out: IC50 (RAD51 protein inhibition, D-loop formation)
T2 sequence (Q06609 1-339): T1 sequence (Q06609 1-339)
Method: Labeled 100-ssDNA** (1 μM) was incubated with 0.5 μM Rad51 in presence or absence of the indicated amounts of the corresponding molecule in 10 μL of standard reaction buffer containing 20 mM Tris-HCl (pH 8), 1 mM ATP, 1 mM DTT, 1 mM CaCl2) at 37° C. for 20 min. The reaction was initiated by adding supercoiled pPB4.3 DNA (200 μM in bp). After incubation of 30 min at 37° C., the reactions were stopped and deproteinized by a stop solution (10 mM Tris-HCl pH 8, 10 mM MgCl2, 1% SDS, and 1 mg/mL proteinase K. The reaction mixtures were further incubated for 15 min at 37° C. After adding 5-fold loading dye (0.05% bromophenol blue, 8% glycerol, 1 mM EDTA), the reaction products were separated by electrophoresis on 1% agarose gel. The electrophoresis was carried out in 0.5×TAE buffer (20 mM Tris, 10 mM acetic acid and 1 mM EDTA) at 100 V for 2 h. The labeled products (100-ssDNA** and D-loop) were visualized and quantified by the detection of the IRD-700 dye with the 700 nm infrared fluorescent detection channel of an Odyssey Infrared Imager (LI-COR) (Normand, A. et al., Biochemical Pharmacology, October 2014, Vol. 91, No. 3, pp. 293-300).
The “D-loop” in vitro test allows the quantification of the formation of the strand exchange structure (D-loop) and thus the determination of the inhibitory power of a molecule during the strand exchange step of the recombinase mechanism. IC50 measuring the RAD51 protein inhibition in presence of compounds A-1 to A-5, […] and DIDS are then calculated.

fibroblast cells = test: Cytotoxicity, MTT assay; format: cell-based; conditions: 50 μM for 3 days, FIG. 7
Method: as §1, §2, §3
After 72 h of incubation, 20 μL of 5 mg mL-1 MTT was added to each well according to the manufacturer's instructions. After 2 h of incubation at 37° C., the medium was removed, and 200 μl DMSO was added to each well to dissolve formazan crystals. The absorbance at 540 nm of each well was then monitored using an EnSpire multimode plate reader. Absorbance of each well was expressed as percentage of the control (wells with untreated cells), and the 50% inhibitory concentration (IC50) was determined. […] All data were expressed as the mean values±standard deviation. The IC50 values were calculated by linear regression analysis of the concentration-log response curves using the software GraphPad InStat 3.0.

Structure (SMILES): O=c1c2ccccc2nc(/C=C/c2cccnc2)n1Cc1ccccc1 [BPQ, (E)-3-benzyl-2-(2-(pyridin-3-yl)vinyl)quinazolin-4(3H)-one]
mortality of cells [1]: 90%
cytotoxic effect ([1]; FIG. 6): high cytotoxicity

Structure (SMILES): N.N.[Cl][Pt][Cl] [Cisplatin, reference compound]
IC50 (DU-145 cell line): 33 µM
level of RAD51 foci [2]: high level

oligomerization state of RAD51 protein (HsRad51): reduction
IC50 (Rad51): 1 µM
Structure (SMILES): O=S(=O)(O)c1cc(N=C=S)ccc1C=Cc1ccc(N=C=S)cc1S(=O)(=O)O [DIDS, 4,4′-Diisothiocyano-2,2′-stilbene disulfonic acid, reference compound]
cytotoxic effect (fibroblast cells): has a cytotoxic effect
